Laboratory results as given in patent US10792287B2, “Methods for treating mitochondrial diseases” (The Regents of the University of California, priority 2015, dated 2020).

What was measured:
[1] = test system: LHON cybrids (11778 G>A); assay: Complex I-driven ATP synthesis in rotenone-inhibited LHON mutant cybrids (luciferase-based, high-throughput screen and concentration-response); assay type: cell-based
[2] = test system: permeabilized LHON mutant (11778 G>A) cells; assay: Complex I-driven ATP synthesis, drug applied to permeabilized LHON mutant cells; assay type: cell-based; conditions: permeabilized cells (30 min) instead of intact cells (2 h); rotenone 0.03 μM
Method: Cells were permeabilized with streptolysin O and mitochondrial complex I-driven ATP synthesis was measured in presence of complex I substrates (malate/pyruvate). […] Intact cells were permeabilized with streptolysin O and mitochondrial complex I-driven ATP synthesis was measured in presence of complex I substrates (malate/pyruvate).

[3] = test system: innate immune/inflammatory response in Ndufs4 KO retina; assay: Retinal gene expression of innate immune and inflammatory markers after drug treatment (Example 3); assay type: in vivo, mouse; conditions: Ndufs4 KO mice; doses as in drug formulation
Method: The graphs represent RNA expression of B2m (FIG. 21A), Tlr2 (FIG. 21B), Cxc110 (FIG. 21C), Cc15 (FIG. 21D), and Aif1 (FIG. 21E) in the wild type and Ndufs4 knockout retina. Bars represent mean delta Ct values normalized to housekeeping genes, Actb and Mapk1. Error bars represent standard error of the mean. Statistical significance was determined by two-tailed student's t test. * P<0.05, ** P<0.01, **** P<0.0001.
(§1) Wild type and Ndufs4 knockout mice were placed in one of five groups: vehicle, papaverine (20 mg/kg), zolpidem (20 mg/kg), rapamycin (8 mg/kg), or idebenone (200 mg/kg). For papaverine, zolpidem, and rapamycin, drug was dissolved in DMSO which was diluted in 5% PEG-400/5% Tween-20 in PBS. Vehicle contained all components except for the drug. The solution was then sterile filtered and intraperitoneal injections were performed using a 30 gauge needle. Idebenone was administered as a jelly and consumed orally.
We have previously shown that inflammatory gene expression of Aif1, Tlr2, B2m, Cc15, and Cxc110 are all elevated in the Ndufs4 KO mouse compared to wild type by more than 3-fold, indicating an inflammatory pathomechanism of mitochondrial blindness (Yu et al., Proc Natl Acad Sci USA, 2015, 112(42): E5689-98). […] Papaverine, zolpidem, rapamycin, and idebenone were administered to Ndufs4 KO mice to determine whether their protection of vision (FIG. 20) was through an anti-inflammatory mechanism of action. […] Thus, papaverine, zolpidem, and rapamycin appear to protect mitochondrial loss of vision through an antiinflammatory mechanism.

[4] = test system: control healthy cybrid; assay: Mitochondrial copy number (MT-TL1/B2M ratio), control cybrids; assay type: cell-based; conditions: control cells; 24 hrs exposure
Method: (§2) FIGS. 14A-14C illustrate the effect of drugs on the mitochondrial copy number. Difference of mitochondrial copy number between 11778 (G>A) mutant and control cybrids (FIG. 14A). Effect of zolpidem and papaverine on the control healthy cybrid mitochondrial copy number (FIG. 14B) and 11778 (G>A) mutant cybrid mitochondrial copy number (FIG. 14C). Cells were treated with either vehicle or one of the drugs at specified concentration for 24 h. The cells were harvested after 24 h and the ratio between MT-TL1 and B2M was determined. Data is presented as average relative fold change±std. deviation from three independent observations. Statistical significance (p<0.05) is denoted by ‘*’ and was determined by one way ANOVA and Dunett's post hoc test.

[5] = test system: 11778 (G>A) mutant cybrid; assay: Mitochondrial copy number (MT-TL1/B2M ratio), mutant cybrids; assay type: cell-based; conditions: LHON mutant cells [11778(G>A)]; 24 hrs exposure
Method: as §2

[6] = test system: control cybrids; assay: Papaverine response in rotenone-inhibited control cybrids; assay type: cell-based
Source text: FIG. 19A depicts response to papaverine in control cybrids. FIG. 19B depicts response to papaverine in mutant cybrids.

[7] = test system: Ndufs4 knockout mice; assay: Visual cliff test; assay type: in vivo, mouse; conditions: P21-P35 treatment; papaverine 20 mg/kg, zolpidem 20 mg/kg, rapamycin 8 mg/kg i.p.; idebenone 200 mg/kg oral
[8] = test system: Ndufs4 KO mice; assay: Microglia activation (Iba1 staining of whole mount retinas); assay type: in vivo, mouse; conditions: two weeks (P21-P35) intraperitoneal treatment
[9] = test system: Ndufs4 KO mice; assay: Starburst amacrine cell count (ChAT staining of whole retina); assay type: in vivo, mouse; conditions: two weeks (P21-P35) intraperitoneal injections
Method: 20× confocal images of whole retina stained with ChAT (marker of starburst amacrine cells) from wild type (FIG. 22A), Ndusf4 KO vehicle treated (FIG. 22B), Ndufs4 KO papaverine treated (FIG. 22C), Ndufs4 KO zolpidem treated (FIG. 22D), and Ndufs4 KO rapamycin treated (FIG. 22E) are shown.
as §1

COc1ccc(Cc2nccc3cc(OC)c(OC)cc23)cc1OC [papaverine]
fold induction at 10 µM ([1]; 20 h, read-out: Fold change of ATP synthesis rate greater than 2x Median Absolution Deviation): 2.4 | reversal of rotenone sensitivity of complex I-driven ATP synthesis ([1]; different concentrations of drug 22 h, then rotenone 0.03 μM 2 h): dose-dependently reversed the rotenone sensitivity | protective effect with short treatment of intact cells ([1]; intact cells treated with papaverine and rotenone 0.03 μM for 2 hrs): protective effect of papaverine was observed | concentration-dependent reversal of rotenone-induced ATP synthesis inhibition, comparison of the two hits ([1]; papaverine vs zolpidem): stronger than Zolpidem | complex I driven ATP production in permeabilized cells [2]: inhibited complex I driven ATP production | innate immune/inflammatory gene expression (B2m, Tlr2, Cxcl10, Ccl5, Aif1) in retina [3]: significantly inhibited a portion of the innate immune/inflammatory response | ratio of mtDNA/nDNA [4]: did not significantly change the ratio of mtDNA/nDNA | ratio of mtDNA/nDNA [5]: did not significantly change the ratio of mtDNA/nDNA | complex 1-dependent ATP synthesis in normal cells inhibited by rotenone [6]: dose dependently stimulates complex 1-dependent ATP synthesis | visual function (median # edge detections) [7]: visual function was preserved | microglia activation [8]: significant inhibition of microglia activation | starburst amacrine cell loss [9]: less cell loss than vehicle-treated Ndufs4 KO mice
